The record followed here is US4288590A, “7 -[Dα-(4-Hydroxy-1,5-naphthyridine-3-carboxamido)-α-arylacetam ido]-3-(N,N-dimethyl-aminomethylpyridinium) methyl-3-cephem-4-carboxylates” (Bristol-Myers Company, priority 1980, dated 1981).

For orientation: MIC means the lowest concentration that inhibits growth of the organism.

≈ marks a conversion by molar mass, not a printed value. Structures can show the parent of a compound that is named as a salt. Where two headings read alike, the source gives them in different places.

Common to all, as to assay: MIC, serial two-fold agar dilution (Table 1)
Common to all, as to format: cell-based

Experiment [1] concerns E. coli Juhl A15119. Conditions: Escherichia coli, JUHLA15119; E. coli Juhl A15119, cephalothin-sensitive; Mueller-Hinton agar. As to the method:
(§1) Minimum inhibitory concentrations (MIC) of BB-S 651, BB-S 669 and BB-S 676 were determined by serial two-fold agar dilution method using Steers' apparatus on Mueller-Hinton agar plate against 15 test organisms for primary screening as shown in Table 1.

In experiment [2] the test system is Ps. aeruginosa A20718. The settings on record: Pseudomonas aeruginosa, Mueller-Hinton agar. As for the experimental part:
as §1

For experiment [3], the system named is E. coli A15148. The settings on record: Escherichia coli; E. coli A15148, cephalothin-resistant; Mueller-Hinton agar. As to the method:
as §1

Experiment [4] concerns Ps. aeruginosa A9843. Conditions: Pseudomonas aeruginosa, Mueller-Hinton agar. As to the method: as §1
Experiment [5] has as its system S. marcescens A20019. Conditions: Serratia marcescens, Mueller-Hinton agar. As for the experimental part:
as §1

Experiment [6] has as its system E. coli A15164. The settings on record: Escherichia coli; E. coli A15164, cephalothin-resistant; Mueller-Hinton agar. As to the method:
as §1

For experiment [7], the system named is S. aureus Smith A9537. The settings on record: Staphylococcus aureus, SMITHA9537, Mueller-Hinton agar. As for the experimental part:
as §1

The test system of experiment [8] is S. aureus BX-1633-2 A9606. Conditions: Staphylococcus aureus, BX16332A9606. As to the method: as §1
Experiment [9] has as its system E. cloacae A9656. The settings on record: Enterobacter cloacae, Mueller-Hinton agar. As for the experimental part:
as §1

For experiment [10], the system named is E. coli A9660. Conditions: Escherichia coli; E. coli A9660, cephalothin-sensitive; Mueller-Hinton agar. As to the method:
as §1

The test system of experiment [11] is Ps. aeruginosa A15150. The settings on record: Pseudomonas aeruginosa, Mueller-Hinton agar. As for the experimental part: as §1
The test system of experiment [12] is Ps. aeruginosa A20717. Conditions: Pseudomonas aeruginosa, Mueller-Hinton agar. As to the method:
as §1

The subject of experiment [13] is Ps. aeruginosa A20229. The settings on record: Pseudomonas aeruginosa, Mueller-Hinton agar. As for the experimental part:
as §1

The subject of experiment [14] is S. aureus #193. The settings on record: Staphylococcus aureus. As to the method: as §1
The test system of experiment [15] is S. aureus 209P A9497. The settings on record: Staphylococcus aureus. As to the method: as §1
Setting [16] is: S. aureus BX-1633-2 A9606, penicillinase-producing, Mueller-Hinton agar, read-out: MIC.
Where [17] appears, read: S. aureus #193, penicillinase-producing, Mueller-Hinton agar, read-out: MIC.
Where [18] appears, read: S. aureus 209P A9497, Mueller-Hinton agar, read-out: MIC.

Regarding `CN(C)Cc1cc[n+](CC2=C(C(=O)[O-])N3C(=O)C(NC(=O)[C@H](NC(=O)c4cnc5cccnc5c4O)c4ccc(O)cc4)C3SC2)cc1` (stereo partly drawn) [BB-S 669, 7-[D-α-(4-Hydroxy-1,5-naphthyridine-3-carboxamido)-α-(4-hydroxyphenyl)acetamido]-3-(4-N,N-dimethylaminomethylpyridinium)methyl-3-cephem-4-carboxylate Hydrochloride], the minimal inhibitory concentration (MIC) in experiment [1] was 1.6 µg/mL; in [2], 0.8 µg/mL; in experiment [3], 0.8 µg/mL; in [4], 1.6 µg/mL; in [5], 12.5 µg/mL; in [6], 6.3 µg/mL. The MIC stood at 6.3 µg/mL in experiment [7]; 25 µg/mL in [8] (setting [16]); 3.1 µg/mL in experiment [9]; 0.8 µg/mL in experiment [10]; 0.8 µg/mL in experiment [11]; 3.1 µg/mL in experiment [12]. Moreover, the MIC in [13] came to 1.6 µg/mL; in experiment [14] (setting [17]), 25 µg/mL; in experiment [15] (209P), 3.1 µg/mL.
In the case of `CN(C)Cc1ccc[n+](CC2=C(C(=O)[O-])N3C(=O)C(NC(=O)[C@H](NC(=O)c4cnc5cccnc5c4O)c4ccccc4)C3SC2)c1` (stereo partly drawn) [BB-S 676, 7-[D-α-(4-Hydroxy-1,5-naphthyridine-3-carboxamido)α-phenylacetamido]-3-(3-N,N-dimethylaminomethylpyridinium)methyl-3-cephem-4-carboxylateHydrochloride], the minimum inhibitory concentration (MIC) in experiment [1] is 12.5 µg/mL; in experiment [2] it was 1.6 µg/mL; in experiment [3], 6.3 µg/mL; in experiment [4] it was 3.1 µg/mL; in [5] it was 50 µg/mL; in experiment [6], 50 µg/mL. Besides, the MIC in experiment [7] worked out at 3.1 µg/mL; in experiment [8] (setting [16]) it was 6.3 µg/mL; in experiment [9], 50 µg/mL; in experiment [10], 3.1 µg/mL; in experiment [11], 1.6 µg/mL; in experiment [12] it was 6.3 µg/mL. Also, the figures for the MIC in experiment [13], in [14] (setting [17]) and in experiment [15] (setting [18]) were 3.1 µg/mL, 6.3 µg/mL and 1.6 µg/mL, respectively.
On to `CC1(C)S[C@@H]2[C@H](NC(=O)C(C(=O)O)c3ccccc3)C(=O)N2[C@H]1C(=O)O` (stereo partly drawn) [Carbenicillin, reference compound], for which the MIC in experiment [1] came out at 3.1 µg/mL (≈ 8.19 µM); in experiment [2], 25 µg/mL (≈ 66.1 µM); in [3], 3.1 µg/mL (≈ 8.19 µM); in [4] it was 50 µg/mL (≈ 132 µM); in [5], 3.1 µg/mL (≈ 8.19 µM); in experiment [6] it was 6.3 µg/mL (≈ 16.6 µM). Further, the MIC in experiment [7] was 0.2 µg/mL (≈ 0.529 µM); in [8] it was 12.5 µg/mL (≈ 33 µM); in experiment [9], 3.1 µg/mL (≈ 8.19 µM); in experiment [10] it was 0.8 µg/mL (≈ 2.11 µM); in [11] it was 25 µg/mL (≈ 66.1 µM); in experiment [12], > 100 µg/mL. Moreover, the MIC in experiment [13] stood at 50 µg/mL (≈ 132 µM); in experiment [14], 12.5 µg/mL (≈ 33 µM); in experiment [15] (setting [18]), 0.2 µg/mL (≈ 0.529 µM).
